Literature values as cited in patent US7351424B2, “Enhanced purity trans-lutein-ester compositions and methods of making same” (Bio Lut S.A. de C.V., priority 2004, dated 2008).

Conditions: human, in vivo

- bioavailability: even better than free lutein
Substance: lutein esters
